The results in this text go back to PMC9732821, “Neurotrophic Activity and Its Modulation by Zinc Ion of a Dimeric Peptide Mimicking the Brain-Derived Neurotrophic Factor N-Terminal Region” (ACS Chemical Neuroscience, 2022).

The subject of the data set is SH-SY5Y cells. The experiment in a line: MTS cell viability assay, RA-differentiated SH-SY5Y cells. Format: cell-based, human. The conditions noted are these: three days. As for the experimental part:
one-way ANOVA with Dunnett’s multiple comparison test , # p<0.05 versus BDNF, according to one-way ANOVA with Sidak’s multiple comparison test).
Figure S 2. MT S assay for BDNF and its mimetic peptides. Cell viability assay of RA - differentiated SH -SY5Y cells treated for three days with 150 ng/ml BDNF of with different concentrations of m-, d- or s-bdnf peptides (M, D and S, respectively). ** p<0.01, *p<0.05, according to one-way ANOVA with Dunnett’s multiple comparison test).
(1 picture or pasted object on this page, not shown here) […]
incubated for 3 days in serum-free DMEM-F12 (morphometric ctrl). […]
SH-SY5Y were seeded at a density of 3.000 cell/well in 96 multiwell and differentiated as describe above. The viability of differentiated cells, in response to the various treatments, was assessed using an MTS assay (CellTiter 96 AQueous One Solution Cell Proliferation Assay kit; Promega) according to the manufacturer’s instructions. The absorbance of formazan at 490 nm was measured in a colorimetric assay with the EnSightTM multimode plate reader (Perkin Elmer). […]
TrkB phosphorylation was monitored after TrkB-eGFP construct immunoprecipitation, similarly to what previously reported for TrkA phosphorylation 3. […]
For orientation: Formazan colour is commonly taken as a measure of viable cells.

For “HSDPARRGELSV-NH2 [m-bdnf, linear peptide fragment encompassing the first 12 amino acids of the mature NT N-terminal]”, under “lower doses of m-bdnf”, the “cell viability (toxicity)” value is recorded as “some toxicity”.

For the substance “HSDPARRGELSVC-C-VSLEGRRAPDSH (disulfide) [d-bdnf]”, the cell viability entry (5–10 μM d-bdnf) is given as “no reduced vitality of the culture”.
